Experimental data taken from PubChem BioAssay (NCI).
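GI50 is the concentration that inhibits growth by half. TGI marks complete inhibition of growth.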

Legend:
Assay in all cases: inhibition of tumour cell growth, NCI panel, 384-well format
786-0 renal = test system: 786-0 renal
A498 renal = test system: A498 renal
A549 NSCLC = test system: A549 NSCLC
ACHN renal = test system: ACHN renal
BT-549 breast = test system: BT-549 breast
CAKI-1 renal = test system: CAKI-1 renal
COLO 205 colon = test system: COLO 205 colon
DU-145 prostate = test system: DU-145 prostate
EKVX NSCLC = test system: EKVX NSCLC
HCT-116 colon = test system: HCT-116 colon
HCT-15 colon = test system: HCT-15 colon
HL-60(TB) leukemia = test system: HL-60(TB) leukemia
HOP-62 NSCLC = test system: HOP-62 NSCLC
HOP-92 NSCLC = test system: HOP-92 NSCLC
HS 578T breast = test system: HS 578T breast
HT29 colon = test system: HT29 colon
IGROV1 ovarian = test system: IGROV1 ovarian
K-562 leukemia = test system: K-562 leukemia
KM12 colon = test system: KM12 colon
M14 melanoma = test system: M14 melanoma
MALME-3M melanoma = test system: MALME-3M melanoma
MCF7 breast = test system: MCF7 breast
MDA-MB-231 breast = test system: MDA-MB-231 breast
MDA-MB-435 melanoma = test system: MDA-MB-435 melanoma
MDA-MB-468 breast = test system: MDA-MB-468 breast
MOLT-4 leukemia = test system: MOLT-4 leukemia
NCI-H226 lung = test system: NCI-H226 lung
NCI-H23 lung = test system: NCI-H23 lung
NCI-H322M lung = test system: NCI-H322M lung
NCI-H460 NSCLC = test system: NCI-H460 NSCLC
NCI-H522 lung = test system: NCI-H522 lung
OVCAR-3 ovarian = test system: OVCAR-3 ovarian
OVCAR-4 ovarian = test system: OVCAR-4 ovarian
OVCAR-5 ovarian = test system: OVCAR-5 ovarian
OVCAR-8 ovarian = test system: OVCAR-8 ovarian
PC-3 prostate = test system: PC-3 prostate
RXF 393 renal = test system: RXF 393 renal
SF-268 CNS = test system: SF-268 CNS
SF-295 CNS = test system: SF-295 CNS
SF-539 CNS = test system: SF-539 CNS
SK-MEL-2 melanoma = test system: SK-MEL-2 melanoma
SK-MEL-28 melanoma = test system: SK-MEL-28 melanoma
SK-MEL-5 melanoma = test system: SK-MEL-5 melanoma
SK-OV-3 ovarian = test system: SK-OV-3 ovarian
SN12C renal = test system: SN12C renal
SNB-19 CNS = test system: SNB-19 CNS
SNB-75 CNS = test system: SNB-75 CNS
SR leukemia = test system: SR leukemia
SW-620 colon = test system: SW-620 colon
T-47D breast = test system: T-47D breast
TK-10 renal = test system: TK-10 renal
U251 glioblastoma = test system: U251 glioblastoma
UACC-257 melanoma = test system: UACC-257 melanoma
UACC-62 melanoma = test system: UACC-62 melanoma
UO-31 renal = test system: UO-31 renal

SMILES: Cc1sc2c(c1C)C(c1ccc(Cl)cc1)=N[C@@H](CC(=O)NCCCN1CCN(C)CC1)c1nnc(C)n1-2
- GI50 ([…]-0 renal): 1790 nM
- TGI (786-0 renal): > 100000 nM
- GI50 (A498 renal): 3310 nM
- TGI (A498 renal): > 100000 nM
- GI50 (A549 NSCLC): 854 nM
- TGI (A549 NSCLC): > 100000 nM
- GI50 (ACHN renal): 10200 nM
- TGI (ACHN renal): > 100000 nM
- GI50 (BT-549 breast): 238 nM
- TGI (BT-549 breast): 11400 nM
- GI50 (CAKI-1 renal): 677 nM
- TGI (CAKI-1 renal): > 100000 nM
- GI50 (COLO 205 colon): 257 nM
- TGI (COLO 205 colon): > 100000 nM
- GI50 (DU-145 prostate): 7160 nM
- TGI (DU-145 prostate): > 100000 nM
- GI50 (EKVX NSCLC): 31500 nM
- TGI (EKVX NSCLC): > 100000 nM
- GI50 (HCT-116 colon): 407 nM
- TGI (HCT-116 colon): > 100000 nM
- GI50 (HCT-15 colon): 13000 nM
- TGI (HCT-15 colon): > 100000 nM
- GI50 (HL-60(TB) leukemia): 12.8 nM
- TGI (HL-60(TB) leukemia): 27 nM
- GI50 (HOP-62 NSCLC): 448 nM
- TGI (HOP-62 NSCLC): > 100000 nM
- GI50 (HOP-92 NSCLC): 486 nM
- TGI (HOP-92 NSCLC): > 100000 nM
- GI50 (HS 578T breast): 38.1 nM
- TGI (HS 578T breast): 11400 nM
- GI50 (HT29 colon): 143 nM
- TGI (HT29 colon): > 100000 nM
- GI50 (IGROV1 ovarian): 277 nM
- TGI (IGROV1 ovarian): > 100000 nM
- GI50 (K-562 leukemia): 154 nM
- TGI (K-562 leukemia): > 100000 nM
- GI50 (KM12 colon): 56000 nM
- TGI (KM12 colon): > 100000 nM
- GI50 (M14 melanoma): 404 nM
- TGI (M14 melanoma): > 100000 nM
- GI50 (MALME-3M melanoma): 330 nM
- TGI (MALME-3M melanoma): 26400 nM
- GI50 (MCF7 breast): 24.2 nM
- TGI (MCF7 breast): 4880 nM
- GI50 (MDA-MB-231 breast): 67.4 nM
- TGI (MDA-MB-231 breast): > 100000 nM
- GI50 (MDA-MB-435 melanoma): 1330 nM
- TGI (MDA-MB-435 melanoma): > 100000 nM
- GI50 (MDA-MB-468 breast): 48.4 nM
- TGI (MDA-MB-468 breast): 729 nM
- GI50 (MOLT-4 leukemia): 105 nM
- TGI (MOLT-4 leukemia): 10600 nM
- GI50 (NCI-H226 lung): 1520 nM
- TGI (NCI-H226 lung): > 100000 nM
- GI50 (NCI-H23 lung): 308 nM
- TGI (NCI-H23 lung): 56900 nM
- GI50 (NCI-H322M lung): 226 nM
- TGI (NCI-H322M lung): > 100000 nM
- GI50 (NCI-H460 NSCLC): 453 nM
- TGI (NCI-H460 NSCLC): > 100000 nM
- GI50 (NCI-H522 lung): 31.6 nM
- TGI (NCI-H522 lung): 352 nM
- GI50 (OVCAR-3 ovarian): 148 nM
- TGI (OVCAR-3 ovarian): > 100000 nM
- GI50 (OVCAR-4 ovarian): 148 nM
- TGI (OVCAR-4 ovarian): 1630 nM
- GI50 (OVCAR-5 ovarian): 666 nM
- TGI (OVCAR-5 ovarian): > 100000 nM
- GI50 (OVCAR-8 ovarian): 1210 nM
- TGI (OVCAR-8 ovarian): > 100000 nM
- GI50 (PC-3 prostate): 583 nM
- TGI (PC-3 prostate): > 100000 nM
- GI50 (RXF 393 renal): 338 nM
- TGI (RXF 393 renal): 2900 nM
- GI50 (SF-268 CNS): 12000 nM
- TGI (SF-268 CNS): > 100000 nM
- GI50 (SF-295 CNS): 7300 nM
- TGI (SF-295 CNS): > 100000 nM
- GI50 (SF-539 CNS): 312 nM
- TGI (SF-539 CNS): 26900 nM
- GI50 (SK-MEL-2 melanoma): 36.6 nM
- TGI (SK-MEL-2 melanoma): 24500 nM
- GI50 (SK-MEL-28 melanoma): 10100 nM
- TGI (SK-MEL-28 melanoma): > 100000 nM
- GI50 (SK-MEL-5 melanoma): 462 nM
- TGI (SK-MEL-5 melanoma): 37900 nM
- GI50 (SK-OV-3 ovarian): 208 nM
- TGI (SK-OV-3 ovarian): > 100000 nM
- GI50 (SN12C renal): > 100000 nM
- TGI (SN12C renal): > 100000 nM
- GI50 (SNB-19 CNS): > 100000 nM
- TGI (SNB-19 CNS): > 100000 nM
- GI50 (SNB-75 CNS): 443 nM
- TGI (SNB-75 CNS): > 100000 nM
- GI50 (SR leukemia): 71.1 nM
- TGI (SR leukemia): > 100000 nM
- GI50 (SW-620 colon): 23300 nM
- TGI (SW-620 colon): > 100000 nM
- GI50 (T-47D breast): 529 nM
- TGI (T-47D breast): 71600 nM
- GI50 (TK-10 renal): 1190 nM
- TGI (TK-10 renal): > 100000 nM
- GI50 (U251 glioblastoma): 2490 nM
- TGI (U251 glioblastoma): > 100000 nM
- GI50 (UACC-257 melanoma): 985 nM
- TGI (UACC-257 melanoma): 21900 nM
- GI50 (UACC-62 melanoma): 53.8 nM
- TGI (UACC-62 melanoma): > 100000 nM
- GI50 (UO-31 renal): 30200 nM
- TGI (UO-31 renal): > 100000 nM
